Test results published in EP2487157A1, “Enantioselective synthesis method of 4-aminoalcoholquinoline derivatives and the use” (Université de Picardie Jules Verne, priority 2011, dated 2012).
Values after ≈ are worked out from the molar mass of the structure shown. Read-outs that look alike come from different tables or passages of the source.

Key:
[1] = test system: Plasmodium falciparum chloroquine resistant (W2); test: Antimalarial test, tritiated hypoxanthine incorporation, chloroquine resistant clone W2; format: cell-based; details: read-out: 50% inhibitory concentration followed by uncertainty about the value expressed in percentage
Procedure: (§1) Screenings of the compound according to the present invention (1f, 1h, 1i) and their isomers (1a, 1c, 1d)on strains of Plasmodium falciparum sensitive (3D7) and chloroquine resistant (W2) were realized.
(§2) The Clones of W2 and 3D7 were grown. […] Melfloquine (MQ) at the same concentrations and chloroquine (CQ) at the concentrations adapted to each clone were used as the Controls. 8 negative controls were distributed on each plate.
(§3) Then, the molecules to be tested were diluted extemporaneously in the above preparation of the plates. The growth medium was deposited after drying plates. The study was initiated when the growth medium was at the ring stage and then stopped after 1 parasitic cycle (45h).
(§4) The activity was calculated by using the Pk-Fit software on all the experimental points obtained for each molecule (except the highest concentration). The results shown in table 5 are expressed in nM and correspond to calculate a 50% inhibitory concentration followed by un certainty about the value expressed in percentage. Table 5. The biological effect of the compounds on Plasmodium falciparum

[2] = test system: Plasmodium falciparum sensitive (3D7); test: Antimalarial test, tritiated hypoxanthine incorporation, sensitive clone 3D7; format: cell-based; details: read-out: 50% inhibitory concentration followed by uncertainty about the value expressed in percentage
Procedure: as §1, §2, §3, §4

E. coli DSM 1103 = test: Antibacterial test, MIC by CLSI broth dilution; format: cell-based; details: 18 to 24 h at 37°C, Mueller-Hinton
Procedure: (§5) The minimum inhibitory concentrations (MICs) were determined according to the recommendations of the Clinical and Laboratory Standards Institute (CLSI)^[27]. […] After incubation for 18 to 24 h (48 h for Enterococcus faecalis) at 37°C, the MIC was determined as the product concentration of the first well with no visual signs of bacterial growth (no disorder in the well). […] Table6. The antibacterial effects of the compounds

P. aeruginosa DSM 1117 = test: Antibacterial test, MIC by CLSI broth dilution; format: cell-based; details: 18 to 24 h at 37°C, Mueller-Hinton
Procedure: as §5

S. aureus CIP 103429 = test: Antibacterial test, MIC by CLSI broth dilution; format: cell-based; details: 18 to 24 h at 37°C, Mueller-Hinton
Procedure: as §5

E. faecalis CIP 103214 = test: Antibacterial test, MIC by CLSI broth dilution; format: cell-based, Enterococcus faecalis; details: 48 h at 37°C, Mueller-Hinton
Procedure: as §5

SAAM 12 = test: Antibacterial test, MIC by CLSI broth dilution; format: cell-based, Staphylococcus aureus; details: SAAM 12, clinical strain resistant to methicillin; 18 to 24 h at 37°C
Procedure: as §5

SAAM 27 = test: Antibacterial test, MIC by CLSI broth dilution; format: cell-based, Staphylococcus aureus; details: SAAM 27, clinical strain resistant to methicillin; 18 to 24 h at 37°C
Procedure: as §5

SAAM 51 = test: Antibacterial test, MIC by CLSI broth dilution; format: cell-based, Staphylococcus aureus; details: SAAM 51, clinical strain resistant to methicillin; 18 to 24 h at 37°C
Procedure: as §5

SAAM 64 = test: Antibacterial test, MIC by CLSI broth dilution; format: cell-based, Staphylococcus aureus; details: SAAM 64, clinical strain resistant to methicillin; 18 to 24 h at 37°C
Procedure: as §5

SAAM 69 = test: Antibacterial test, MIC by CLSI broth dilution; format: cell-based, Staphylococcus aureus; details: SAAM 69, clinical strain resistant to methicillin; 18 to 24 h at 37°C
Procedure: as §5

SAAM 86 = test: Antibacterial test, MIC by CLSI broth dilution; format: cell-based, Staphylococcus aureus; details: SAAM 86, clinical strain resistant to methicillin; 18 to 24 h at 37°C
Procedure: as §5

SAAM 95 = test: Antibacterial test, MIC by CLSI broth dilution; format: cell-based, Staphylococcus aureus; details: SAAM 95, clinical strain resistant to methicillin; 18 to 24 h at 37°C
Procedure: as §5

SAAM 98 = test: Antibacterial test, MIC by CLSI broth dilution; format: cell-based, Staphylococcus aureus; details: SAAM 98, clinical strain resistant to methicillin; 18 to 24 h at 37°C
Procedure: as §5

CNS adenosine receptors = details: result in words, from literature; cited from earlier work
[3] = test system: Sierra Leone and Indochina P. falciparum strains; details: ratio of IC50 values against Sierra Leone and Indochina P. falciparum strains; cited from earlier work
[4] = W2 clone, chloroquine resistant, 1 parasitic cycle (45h), bracket = uncertainty in %
[5] = 3D7 clone, sensitive, 1 parasitic cycle (45h), bracket = uncertainty in %

Row | SMILES | IC50 [1, 4] | IC50 [2, 5] | minimum inhibitory concentrations (MICs) (E. coli DSM 1103) | minimum inhibitory concentrations (MICs) (P. aeruginosa DSM 1117) | minimum inhibitory concentrations (MICs) (S. aureus CIP 103429) | minimum inhibitory concentrations (MICs) (E. faecalis CIP 103214) | minimum inhibitory concentrations (MICs) (SAAM 12) | minimum inhibitory concentrations (MICs) (SAAM 27) | minimum inhibitory concentrations (MICs) (SAAM 51) | minimum inhibitory concentrations (MICs) (SAAM 64) | minimum inhibitory concentrations (MICs) (SAAM 69) | minimum inhibitory concentrations (MICs) (SAAM 86) | minimum inhibitory concentrations (MICs) (SAAM 95) | minimum inhibitory concentrations (MICs) (SAAM 98) | binding to CNS adenosine receptors (CNS adenosine receptors) | more potent than the (-)-enantiomer by a factor [3] | IC50 ([1]; W2, 45 h) | IC50 ([2]; 3D7, 45 h)
1 | O[C@H](c1cc(C(F)(F)F)nc2c(C(F)(F)F)cccc12)[C@@H]1CCCCN1 (relative stereo) [MQ, (±)-(R*,S*)-α-2-piperidinyl-2,8-bis(trifluoromethyl)-4-quinolinemethanol, reference compound] | 26.5 nM | 52.2 nM | 64 µg/mL (≈ 169 µM) | >128 µg/mL | 16 to 32 µg/mL | 16 to 32 µg/mL | 16 µg/mL (≈ 42.3 µM) | 16 µg/mL (≈ 42.3 µM) | 16 µg/mL (≈ 42.3 µM) | 32 µg/mL (≈ 84.6 µM) | 16 µg/mL (≈ 42.3 µM) | 16 µg/mL (≈ 42.3 µM) | 16 µg/mL (≈ 42.3 µM) | 32 µg/mL (≈ 84.6 µM) |  |  |  | 
2 | O[C@@H](c1cc(C(F)(F)F)nc2c(C(F)(F)F)cccc12)[C@H]1CCCCN1 (single isomer, unassigned) [(-)-enantiomer of mefloquine] |  |  |  |  |  |  |  |  |  |  |  |  |  |  | binds to CNS adenosine receptors |  |  | 
3 | O[C@H](c1cc(C(F)(F)F)nc2c(C(F)(F)F)cccc12)[C@@H]1CCCCN1 (single isomer, unassigned) [(+)-enantiomer of the mefloquine] |  |  |  |  |  |  |  |  |  |  |  |  |  |  | without significant activity | 1.69 |  | 
4 | CCCCCNC[C@H](O)c1cc(C(F)(F)F)nc2c(C(F)(F)F)cccc12 [Compound 1c, (R)-1-(2,8-bis(trifluoromethyl)quinolin-4-yl)-2-(pentylamino)ethanol] | 38.2 nM | 74.7 nM | 32 µg/mL (≈ 81.1 µM) | >128 µg/mL | 16 to 32 µg/mL | 16 to 32 µg/mL | 8 µg/mL (≈ 20.3 µM) | 8 µg/mL (≈ 20.3 µM) | 8 µg/mL (≈ 20.3 µM) | 16 µg/mL (≈ 40.6 µM) | 8 µg/mL (≈ 20.3 µM) | 16 µg/mL (≈ 40.6 µM) | 8 µg/mL (≈ 20.3 µM) | 16 µg/mL (≈ 40.6 µM) |  |  |  | 
5 | CCCCCCNC[C@@H](O)c1cc(C(F)(F)F)nc2c(C(F)(F)F)cccc12 [Compound 1i, (S)-1-(2,8-bis(trifluoromethyl)quinolin-4-yl)-2-(hexylamino)ethanol] | 9.4 nM | 14.5 nM | >128 µg/mL | >128 µg/mL | 4 to 8 µg/mL | 4 to 8 µg/mL | 2 µg/mL (≈ 4.9 µM) | 2 µg/mL (≈ 4.9 µM) | 2 µg/mL (≈ 4.9 µM) | 4 µg/mL (≈ 9.79 µM) | 4 µg/mL (≈ 9.79 µM) | 8 µg/mL (≈ 19.6 µM) | 2 µg/mL (≈ 4.9 µM) | 8 µg/mL (≈ 19.6 µM) |  |  |  | 
6 | CCN(CC)CCCC(C)Nc1ccnc2cc(Cl)ccc12 (stereo not shown) [CQ, chloroquine, reference compound] |  |  |  |  |  |  |  |  |  |  |  |  |  |  |  |  | 572 nM | 32.5 nM

Further compounds by falling IC50 [1, 4], results first:

Row | IC50 [1, 4] | IC50 [2, 5] | minimum inhibitory concentrations (MICs) (E. coli DSM 1103) | minimum inhibitory concentrations (MICs) (P. aeruginosa DSM 1117) | minimum inhibitory concentrations (MICs) (S. aureus CIP 103429) | minimum inhibitory concentrations (MICs) (E. faecalis CIP 103214) | minimum inhibitory concentrations (MICs) (SAAM 12) | minimum inhibitory concentrations (MICs) (SAAM 27) | minimum inhibitory concentrations (MICs) (SAAM 51) | minimum inhibitory concentrations (MICs) (SAAM 64) | minimum inhibitory concentrations (MICs) (SAAM 69) | minimum inhibitory concentrations (MICs) (SAAM 86) | minimum inhibitory concentrations (MICs) (SAAM 95) | minimum inhibitory concentrations (MICs) (SAAM 98) | SMILES | binding to CNS adenosine receptors (CNS adenosine receptors) | more potent than the (-)-enantiomer by a factor [3] | IC50 ([1]; W2, 45 h) | IC50 ([2]; 3D7, 45 h)
7 | 142 nM | 205 nM | 16 µg/mL (≈ 39.2 µM) | >128 µg/mL | 4 to 8 µg/mL | 4 to 8 µg/mL | 4 µg/mL (≈ 9.79 µM) | 4 µg/mL (≈ 9.79 µM) | 4 µg/mL (≈ 9.79 µM) | 4 µg/mL (≈ 9.79 µM) | 4 µg/mL (≈ 9.79 µM) | 4 µg/mL (≈ 9.79 µM) | 4 µg/mL (≈ 9.79 µM) | 4 µg/mL (≈ 9.79 µM) | CCCCCCNC[C@H](O)c1cc(C(F)(F)F)nc2c(C(F)(F)F)cccc12 [Compound 1d, (R)-1-(2,8-bis(trifluoromethyl)quinolin-4-yl)-2-(hexylamino)ethanol] |  |  |  | 
8 | 41.1 nM | 104 nM | >128 µg/mL | >128 µg/mL | >128 µg/mL | >128 µg/mL | 4 µg/mL (≈ 9.65 µM) | 4 µg/mL (≈ 9.65 µM) | 4 µg/mL (≈ 9.65 µM) | >128 µg/mL | 8 µg/mL (≈ 19.3 µM) | 8 µg/mL (≈ 19.3 µM) | 4 µg/mL (≈ 9.65 µM) | >128 µg/mL | O[C@@H](CNCc1ccccc1)c1cc(C(F)(F)F)nc2c(C(F)(F)F)cccc12 [Compound 1a, (R)-2-(benzylamino)-1-(2,8-bis(trifluoromethyl)quinolin-4-yl)ethanol] |  |  |  | 
9 | 19.1 nM | 35.1 nM | >128 µg/mL | >128 µg/mL | 4 to 8 µg/mL | 8 µg/mL (≈ 19.3 µM) | 4 µg/mL (≈ 9.65 µM) | 4 µg/mL (≈ 9.65 µM) | 4 µg/mL (≈ 9.65 µM) | >128 µg/mL | 8 µg/mL (≈ 19.3 µM) | 8 µg/mL (≈ 19.3 µM) | 4 µg/mL (≈ 9.65 µM) | 8 µg/mL (≈ 19.3 µM) | O[C@H](CNCc1ccccc1)c1cc(C(F)(F)F)nc2c(C(F)(F)F)cccc12 [Compound 1f, (S)-2-(benzylamino)-1-(2,8-bis(trifluoromethyl)quinolin-4-yl)ethanol] |  |  |  | 
10 | 6.98 nM | 8.33 nM | 16 µg/mL (≈ 40.6 µM) | >128 µg/mL | 16 to 32 µg/mL | 16 to 32 µg/mL | 8 µg/mL (≈ 20.3 µM) | 8 µg/mL (≈ 20.3 µM) | 8 µg/mL (≈ 20.3 µM) | 16 µg/mL (≈ 40.6 µM) | 8 µg/mL (≈ 20.3 µM) | 16 µg/mL (≈ 40.6 µM) | 8 µg/mL (≈ 20.3 µM) | 16 µg/mL (≈ 40.6 µM) | CCCCCNC[C@@H](O)c1cc(C(F)(F)F)nc2c(C(F)(F)F)cccc12 [Compound 1h, (S)-1-(2,8-bis(trifluoromethyl)quinolin-4-yl)-2-(pentylamino)ethanol] |  |  |  | 
